Paper PMC4175417 (Journal of clinical pharmacology, 2013)
Where two headings read alike, the source gives them in different places. Marks after values point to notes of the source that are not given here.

What was measured:
mRCC patients [1] = details: cited from earlier work
mRCC patients [2] = assay: Efficacy in mRCC studies; type: in vivo, human
[3] = cited from earlier work
Axitinib exposure = type: in vivo; details: human, plasma, oral
[4] = cited from earlier work; remark: listed apart in the source
clinical = details: human, in vivo
[5] = In-clinic diastolic blood pressure in mRCC patients of the PK/PD analysis; type: in vivo, human; details: maximum post-baseline dBP within the first 8 weeks; 168 mRCC patients
mRCC = details: second-line therapy for mRCC; cited from earlier work
[6] = corrected serum calcium <10 mg/dL
[7] = corrected serum calcium ≥10 mg/dL
[8] = corrected serum calcium ≥10 vs <10 mg/dL
[9] = hemoglobin >13 g/dL for male, >11.5 for female
[10] = hemoglobin ≤13 g/dL for male, ≤11.5 for female
[11] = per 10 mm Hg increase of dBP, adjusted for prognostic factors
[12] = per 100 hxng/mL increase of AUC, adjusted for prognostic factors
[13] = sorafenib- vs cytokine-refractory

Q: With `CNC(=O)c1ccccc1Sc1ccc2c(/C=C/c3ccccn3)n[nH]c2c1` [axitinib] as the molecule, how does the “RECIST-based overall response rate” value (mRCC patients [1]; study 2, cytokine-refractory mRCC) read?
A: 44%

Q: And the “RECIST-based overall response rate” value (mRCC patients [1]; study 4, sorafenib-refractory mRCC)?
A: 23%

Q: What about the “RECIST-based overall response rate” value (mRCC patients [1]; study 5, Japanese cytokine-refractory mRCC) of the same molecule?
A: 50%

Q: What about the mOS (mRCC patients [2]; AUC <300 hxng/mL) of the same molecule?
A: 15.8 months

Q: What about the mPFS (mRCC patients [2]; AUC <300 hxng/mL) of the same molecule?
A: 7.4 months

Q: And the mOS (mRCC patients [2]; AUC ≥300 hxng/mL)?
A: 37.4 months

Q: What about the mPFS (mRCC patients [2]; AUC ≥300 hxng/mL) of the same molecule?
A: 13.8 months

Q: What about the “OS HR (95% CI), multivariate” value (mRCC patients [2]; ECOG PS) of the same molecule?
A: 2.37 (1.50, 3.72)

Q: What about the “PFS HR (95% CI), multivariate” value (mRCC patients [2]; ECOG PS) of the same molecule?
A: 1.82 (1.17, 2.83)

Q: What about the mOS (mRCC patients [2]; ECOG PS 0) of the same molecule?
A: 41.6 months

Q: And the mPFS (mRCC patients [2]; ECOG PS 0)?
A: 13.7 months

Q: What about the mOS (mRCC patients [2]; ECOG PS 1) of the same molecule?
A: 10.7 months

Q: What about the mPFS (mRCC patients [2]; ECOG PS 1) of the same molecule?
A: 7.13 months

Q: And the “OS HR (95% CI), univariate” value (mRCC patients [2]; ECOG PS 1 vs 0)?
A: 3.63 (2.40, 5.48)

Q: And the “PFS HR (95% CI), univariate” value (mRCC patients [2]; ECOG PS 1 vs 0)?
A: 2.17 (1.46, 3.23)

Q: What about the “OS HR (95% CI), univariate” value (mRCC patients [2]; age, continuous) of the same molecule?
A: 0.992 (0.972, 1.01)

Q: What about the “PFS HR (95% CI), univariate” value (mRCC patients [2]; age, continuous) of the same molecule?
A: 1.006 (0.986, 1.026)

Q: And the mOS (mRCC patients [2]; [6])?
A: 27.7 months

Q: What about the mPFS (mRCC patients [2]; [6]) of the same molecule?
A: 11.1 months

Q: What about the mOS (mRCC patients [2]; [7]) of the same molecule?
A: 16.4 months

Q: What about the mPFS (mRCC patients [2]; [7]) of the same molecule?
A: 8.38 months

Q: And the “OS HR (95% CI), univariate” value (mRCC patients [2]; [8])?
A: 1.74 (1.03, 2.96)

Q: What about the “PFS HR (95% CI), univariate” value (mRCC patients [2]; [8]) of the same molecule?
A: 1.21 (0.688, 2.13)

Q: What about the mOS (mRCC patients [2]; cytokine-refractory) of the same molecule?
A: 30.0 months

Q: What about the mPFS (mRCC patients [2]; cytokine-refractory) of the same molecule?
A: 13.0 months

Q: And the mOS (mRCC patients [2]; dBP <90 mm Hg)?
A: 18.5 months

Q: What about the mPFS (mRCC patients [2]; dBP <90 mm Hg) of the same molecule?
A: 7.86 months

Q: And the mOS (mRCC patients [2]; dBP ≥90 mm Hg)?
A: 29.5 months

Q: What about the mPFS (mRCC patients [2]; dBP ≥90 mm Hg) of the same molecule?
A: 14.6 months

Q: And the mOS (mRCC patients [2]; female)?
A: 19.6 months

Q: What about the mPFS (mRCC patients [2]; female) of the same molecule?
A: 7.63 months

Q: And the “OS HR (95% CI), univariate” value (mRCC patients [2]; female vs male)?
A: 1.26 (0.799, 1.97)

Q: What about the “PFS HR (95% CI), univariate” value (mRCC patients [2]; female vs male) of the same molecule?
A: 1.63 (1.09, 2.46)

Q: And the “Increase in the probability of achieving a partial response” value (mRCC patients [2]; for every 100 hxng/mL increase in AUC, logistic regression)?
A: 1.5 fold

Q: What about the “PFS HR (95% CI), multivariate” value (mRCC patients [2]; gender) of the same molecule?
A: 1.72 (1.14, 2.60)

Q: What about the “OS HR (95% CI), multivariate” value (mRCC patients [2]; hemoglobin) of the same molecule?
A: 0.348 (0.213, 0.567)

Q: What about the “PFS HR (95% CI), multivariate” value (mRCC patients [2]; hemoglobin) of the same molecule?
A: 0.601 (0.393, 0.921)

Q: And the mOS (mRCC patients [2]; [9])?
A: 43.3 months

Q: What about the mPFS (mRCC patients [2]; [9]) of the same molecule?
A: 14.6 months

Q: What about the mOS (mRCC patients [2]; [10]) of the same molecule?
A: 15.9 months

Q: And the mPFS (mRCC patients [2]; [10])?
A: 7.69 months

Q: And the “OS HR (95% CI), univariate” value (mRCC patients [2]; high vs low hemoglobin)?
A: 0.282 (0.179, 0.443)

Q: What about the “PFS HR (95% CI), univariate” value (mRCC patients [2]; high vs low hemoglobin) of the same molecule?
A: 0.537 (0.364, 0.792)

Q: What about the mOS (mRCC patients [2]; male) of the same molecule?
A: 27.7 months

Q: What about the mPFS (mRCC patients [2]; male) of the same molecule?
A: 13.0 months

Q: What about the “OS HR (95% CI), multivariate” value (mRCC patients [2]; [11]) of the same molecule?
A: 0.739 (0.586, 0.931)

Q: And the “PFS HR (95% CI), multivariate” value (mRCC patients [2]; [11])?
A: 0.660 (0.519, 0.839)

Q: What about the “OS HR (95% CI), multivariate” value (mRCC patients [2]; [12]) of the same molecule?
A: 0.866 (0.773, 0.968)

Q: And the “PFS HR (95% CI), multivariate” value (mRCC patients [2]; [12])?
A: 0.909 (0.832, 0.993)

Q: What about the “OS HR (95% CI), multivariate” value (mRCC patients [2]; prior therapy) of the same molecule?
A: 2.12 (1.35, 3.34)

Q: And the “PFS HR (95% CI), multivariate” value (mRCC patients [2]; prior therapy)?
A: 1.60 (1.04, 2.47)

Q: What about the “OS HR (95% CI), univariate” value (mRCC patients [2]; [13]) of the same molecule?
A: 2.15 (1.39, 3.34)

Q: What about the “PFS HR (95% CI), univariate” value (mRCC patients [2]; [13]) of the same molecule?
A: 1.55 (1.02, 2.34)

Q: What about the mOS (mRCC patients [2]; sorafenib-refractory) of the same molecule?
A: 15.8 months

Q: And the mPFS (mRCC patients [2]; sorafenib-refractory)?
A: 7.63 months

Q: And the “Exposure compared with normal hepatic function” value ([3]; mild hepatic impairment)?
A: did not alter axitinib exposures

Q: And the “Higher exposure compared with normal hepatic function” value ([3]; moderate hepatic impairment)?
A: 2 fold

Q: And the AUC (Axitinib exposure)?
A: 375 ng·h/mL

Q: What about the “Time to peak plasma concentration” value ([4]; oral administration, fed state) of the same molecule?
A: 2 to 6 h

Q: And the “Maximum tolerated dose (MTD)” value ([4]; study 1, patients with solid tumors)?
A: 5 mg bid

Q: And the “Effect of food on oral bioavailability” value (Form XLI)?
A: negligible effect

Q: And the “Vp (volume of distribution in peripheral compartment)” value (final model)?
A: 393 L

Q: And the “Age >60-yr effect on CL” value (human, in vivo)?
A: −0.213

Q: What about the “F with Form XLI” value (human, in vivo) of the same molecule?
A: g F with Form XLI is estimated to be 0.402; calculated as 0.457 × (1 – 0.121). Note that there was no observed food effect with Form XLI.

Q: And the “F, fasting with Form IV” value (human, in vivo)?
A: f For fasting effect with Form IV, F is estimated to be 0.608; calculated as 0.457 × (1 + 0.33).

Q: What about the “Fasting effect on ka” value (human, in vivo) of the same molecule?
A: 1.97

Q: What about the “Fasting on F, Form IV” value (human, in vivo) of the same molecule?
A: 0.330

Q: What about the “Japanese ethnicity effect on CL” value (human, in vivo) of the same molecule?
A: −0.249

Q: What about the “Q (apparent inter-compartmental clearance)” value (human, in vivo) of the same molecule?
A: 4.00 (86.8) ^d L/h

Q: What about the “Smoking status on CL” value (human, in vivo) of the same molecule?
A: 1.02

Q: And the “ka (first-order absorption rate constant): fed” value (human, in vivo)?
A: 0.482 (77) hour^–1

Q: What about the “ka higher in the fasted state compared with the fed state” value (human, in vivo) of the same molecule?
A: 197%

Q: What about the “ka, fasting” value (human, in vivo) of the same molecule?
A: e For fasting effect, ka is estimated to be 1.43 hour^−1; calculated as 0.482 hour^−1 × (1 + 1.97).

Q: And the “tlag (absorption lag time)” value (human, in vivo)?
A: 0.454 h

Q: What about the “Increase of oral bioavailability in the fasted state compared with the fed state” value (human, in vivo, po) of the same molecule?
A: 33%

Q: And the Vd (clinical)?
A: 47.3 L

Q: And the clearance (clinical)?
A: 243 mL/min

Q: And the “dBP, median (range)” value [5]?
A: 90 (58–116) ^e mm Hg

Q: What about the Efficacy versus sorafenib (mRCC) of the same molecule?
A: superior efficacy over sorafenib
